Data on three compounds can be found in US10143202B2, “Synergistic blends of antimicrobials useful for controlling microorganisms in industrial processes” (Solenis Technologies, L.P., priority 2014, dated 2018).

For one data set, the system named is Weisella confusa. The following applies: cited from earlier work.
In another data set the test system is fermentation. The following applies: cited from earlier work.
In another data set the test system is Lactobacillus plantarum. The data set is described as follows: Minimal Inhibitory Concentration (MIC), two-fold dilution series in 96 well microplate, antimicrobial used alone. As to conditions: pH 5, 18-24 hours, complete inhibition of growth. The format is cell-based.

In brackets after ≈: the same amount, converted by molar mass.

Description for Lactobacillus plantarum: This is the lowest concentration of a substance or substances which can achieve complete inhibition of growth.
In order to determine the Minimal Inhibitory Concentration, a two-fold dilution series of the antimicrobial is constructed with the dilutions being made in growth media. The dilutions are made in a 96 well microplate such that each well has a final volume of 280 μl of media and antimicrobial. […] After the dilution series is constructed the wells receive an inoculum of microbe suspended in growth media such that the final concentration of microbes in the well is ˜5×10^5 cfu/ml. In these examples the test microbe used is Lactobacillus plantarum. The cultures are incubated at an appropriate temperature for 18-24 hours, and the wells scored as positive or negative for growth based on a visual examination for turbid wells.

On to Virginiamycin, for which the “Concentration required to inhibit growth of Weisella confusa” value in the data set on Weisella confusa is “over 25 mg/L”. For the same compound, in the data set on fermentation, the “Concentration that will suppress fermentation” value is “over 2 mg/L”.

On to `O=C(O)CC(O)(CC(=O)O)C(=O)O` [Citric Acid, citric acid], for which the MIC in the data set on Lactobacillus plantarum (Lactiplantibacillus plantarum, read-out: Citric Acid MIC (QC), Used Alone) amounted to 6250 µg/mL (≈ 32.5 mM). In addition, in the data set with Lactobacillus plantarum, the “Citric Acid MIC (QC), Used Alone” value came to 6250 ppm.

In the case of `[O][Cl+][O-]` [ClO2, chlorine dioxide], the “ClO2 MIC (QA), Used Alone” value in the data set with Lactobacillus plantarum is recorded as 54 ppm.
